Several values for one entry are separate records, joined by “and”; a condition that tells them apart may be missing. Equal values may be shown once. Marks after values point to notes of the source that are not given here.
Key:
[1] = Caco-2 monolayer transport (bioavailability) study, AB and BA directions; format: in vitro ADME, Homo sapiens; details: human
Experimental: (§1) A reversed phase C18 column (Luna 5 μm C18(2) 100 Å, LC Column 250 × 4.6 mm, Phenomenex) was used to separate the polyphenols at a flow rate of 0.7 mL/min with an injection volume of 60 µL. The detection was carried out at 520 nm for anthocyanins (M3G, D3G and Pet3G), at 328 nm for CA, at 356 nm for flavonols (Q3G, K3Gal and K3G) and at 280 nm for GA and SA. The mobile phases were (A) acetonitrile 100% and (B) water 0.1% trifluoroacetic acid (v/v). The gradient was programmed as follows: 10% A 0 min, 10–80% A (0–20 min), 80–100% A (20–25 min), 100% A (25–30 min); 10% A (30–35 min) and 10% A (35–40 min). Every polyphenol was quantified using the corresponding reference standard calibration curve. Each of the quantified phenolic compound concentration was expressed as mg/mL
(§2) For the transport experiment Caco-2 cells were cultured at a density of 4 × 10^4 cells/cm^2 in Transwell inserts (12 mm i.d., 1.12 cm^2 growth area, 0.4 µm mean pore size polycarbonate membranes, Corning Inc., Milwaukee, WI, USA) placed in 12-well plates. Caco-2 cells were grown in DMEM in an incubator at 37 °C in a humidified atmosphere containing 5% CO2.
(§3) Bioavailability studies were performed in triplicate after 21 days of cell growth. Only inserts with stable TEER values higher than ≥300 Ω cm^2 were considered acceptable to perform the bioavailability study. For that purpose, DMEM media was removed, the monolayer was washed with PBS and HBSS was supplied to the cells.
(§4) Likewise, the GSE stock solution was diluted in HBSS medium to prepare GSE solutions S1 and S2. GSE solutions S1 and S2 had concentrations of 15 mg/mL and 22 mg/mL, respectively. These concentrations were established considering previous studies with grape pomace extracts that concluded that intestinal concentrations of 1–2% (w/v) show potential bioactivities and are safe to be used as a food ingredient.
(§5) The apical side represents the intestinal lumen and the basolateral side represents the bloodstream. Each sample (100 µL) was immediately acidified with 1M HCl to a final concentration of 0.007 M and subsequently frozen at −20 °C until analysis by HPLC (according to the method described in Section 2.5). Each experiment was carried out on 3 individual wells. The transport efficiency (TE) percentage was calculated according to Equation (2):Transport efficiency (%) = (C/C0) × 100(2) where, C is the polyphenol concentration at the acceptor side over time and C0 is the initial concentration at the donor side. TE values were calculated for the nine polyphenols identified in the grape skin extract.
(§6) The apparent permeability coefficient (Papp) of the polyphenols in GSE was calculated for apical to basolateral side (AB) and basolateral to apical side (BA) flux studies according to Equation (3):Papp (cm/s) = (dQ/dt) × (VR/AC0)(3) where, dQ/dt is the permeability rate which means the steady-state linear rate of change of concentration (mg/L) per second (s) at the acceptor side; A is the surface area of the cell monolayer (1.12 cm^2). C0 is the initial concentration at the donor side (mg/L) at t = 0 s and VR is the volume of the solution of the acceptor side (mL).
(§7) The efflux ratio (ER) of the polyphenol was assessed by calculating the Equation (4):ER = Papp (BA)/Papp (AB)(4) where, Papp (BA) is the apparent permeability coefficient of the polyphenol from basolateral to apical side and Papp (AB) is the apparent permeability coefficient from apical to basolateral side. ER is a measure of the relative contributions of active and passive transport to bi-direction flux across the cell monolayer.

Caco-2 cell monolayer = assay: as above; format: in vitro ADME, Homo sapiens; details: for TE (%) transport efficiency: after 180 min
Experimental: as §1, §2, §3, §4, §5, §6, §7

[2] = AB experiment, acceptor side, S1 (15 mg/mL GSE)
[3] = AB experiment, acceptor side, S2 (22 mg/mL GSE)
[4] = AB experiment, donor side, S1 (15 mg/mL GSE)
[5] = AB experiment, donor side, S2 (22 mg/mL GSE)
[6] = BA experiment, acceptor side, S1 (15 mg/mL GSE)
[7] = BA experiment, acceptor side, S2 (22 mg/mL GSE)
[8] = BA experiment, donor side, S1 (15 mg/mL GSE)
[9] = BA experiment, donor side, S2 (22 mg/mL GSE)

O=C(O)c1cc(O)c(O)c(O)c1 [GA, gallic acid]
efflux ratio at 180 min, 15 mg/mL ([1]; Caco-2, Papp (BA)/Papp (AB), S1 (15 mg/mL GSE), read-out: ER (efflux ratio)): 0.7
efflux ratio at 180 min, 22 mg/mL ([1]; Caco-2, Papp (BA)/Papp (AB), S2 (22 mg/mL GSE), read-out: ER (efflux ratio)): 0.7
efflux ratio at 180 min ([1]; Caco-2, text statement, S1 and S2): < 1
Papp A→B at 180 min, 15 mg/mL ([1]; Caco-2, apical to basolateral, S1 (15 mg/mL GSE)): 16900 ± 700 nm/s
Papp A→B at 180 min, 22 mg/mL ([1]; Caco-2, apical to basolateral, S2 (22 mg/mL GSE)): 18000 ± 2000 nm/s
Papp B→A at 180 min, 15 mg/mL ([1]; Caco-2, basolateral to apical, S1 (15 mg/mL GSE)): 11500 ± 600 nm/s
Papp B→A at 180 min, 22 mg/mL ([1]; Caco-2, basolateral to apical, S2 (22 mg/mL GSE)): 12900 ± 50 nm/s
TE (%) transport efficiency (Caco-2 cell monolayer; AB experiment, S1 (15 mg/mL GSE)): 156 ± 26%
TE (%) transport efficiency (Caco-2 cell monolayer; AB experiment, S2 (22 mg/mL GSE)): 164 ± 23%
Basolateral Side 75 min (Caco-2 cell monolayer; [2]): 8.1 ± 0.9 ^b mg/L
Basolateral Side 90 min (Caco-2 cell monolayer; [2]): 8.6 ± 0.9 ^b mg/L
Basolateral Side 115 min (Caco-2 cell monolayer; [2]): 9.1 ± 0.9 ^b mg/L
Basolateral Side 180 min (Caco-2 cell monolayer; [2]): 9.4 ± 0.9 ^b mg/L
Basolateral Side 75 min (Caco-2 cell monolayer; [3]): 8.1 ± 0.9 ^b mg/L
Basolateral Side 90 min (Caco-2 cell monolayer; [3]): 8.6 ± 0.9 ^b mg/L
Basolateral Side 115 min (Caco-2 cell monolayer; [3]): 9.1 ± 0.9 ^b mg/L
Basolateral Side 180 min (Caco-2 cell monolayer; [3]): 9.6 ± 0.9 ^b mg/L
Apical Side 0 min (Caco-2 cell monolayer; [4]): 6.1 ± 0.5 ^a mg/L
Apical Side 75 min (Caco-2 cell monolayer; [4]): 5.0 ± 0.5 ^b mg/L
Apical Side 90 min (Caco-2 cell monolayer; [4]): 4.1 ± 0.4 ^c mg/L
Apical Side 115 min (Caco-2 cell monolayer; [4]): 3.4 ± 0.4 ^c,d mg/L
Apical Side 180 min (Caco-2 cell monolayer; [4]): 2.9 ± 0.3 ^d mg/L
Apical Side 0 min (Caco-2 cell monolayer; [5]): 5.9 ± 0.3 ^a mg/L
Apical Side 75 min (Caco-2 cell monolayer; [5]): 5.0 ± 0.3 ^b mg/L
Apical Side 90 min (Caco-2 cell monolayer; [5]): 4.4 ± 0.3 ^c mg/L
Apical Side 115 min (Caco-2 cell monolayer; [5]): 3.7 ± 0.3 ^d mg/L
Apical Side 180 min (Caco-2 cell monolayer; [5]): 3.2 ± 0.3 ^d mg/L
detection at the acceptor side (Caco-2 cell monolayer; AB experiments, basolateral side): detected
TE (%) transport efficiency (Caco-2 cell monolayer; BA experiment, S1 (15 mg/mL GSE)): 165 ± 6% and 164 ± 6%
TE (%) transport efficiency (Caco-2 cell monolayer; BA experiment, S2 (22 mg/mL GSE)): 188 ± 4% and 188 ± 3%
Apical Side 75 min (Caco-2 cell monolayer; [6]): 8.1 ± 0.3 ^a,b mg/L
Apical Side 90 min (Caco-2 cell monolayer; [6]): 9.4 ± 0.2 ^b,c mg/L
Apical Side 115 min (Caco-2 cell monolayer; [6]): 10.5 ± 0.3 ^c,d mg/L
Apical Side 180 min (Caco-2 cell monolayer; [6]): 11.3 ± 0.3 ^d mg/L
Apical Side 75 min (Caco-2 cell monolayer; [7]): 8.3 ± 0.5 ^a,b mg/L
Apical Side 90 min (Caco-2 cell monolayer; [7]): 9.6 ± 0.5 ^b,c mg/L
Apical Side 115 min (Caco-2 cell monolayer; [7]): 10.7 ± 0.6 ^c mg/L
Apical Side 180 min (Caco-2 cell monolayer; [7]): 11.5 ± 0.7 ^c mg/L
Basolateral Side 0 min (Caco-2 cell monolayer; [8]): 6.9 ± 0.3 ^a mg/L
Basolateral Side 75 min (Caco-2 cell monolayer; [8]): 6.5 ± 0.3 ^b mg/L
Basolateral Side 90 min (Caco-2 cell monolayer; [8]): 6.2 ± 0.3 ^c mg/L
Basolateral Side 115 min (Caco-2 cell monolayer; [8]): 5.9 ± 0.3 ^d mg/L
Basolateral Side 180 min (Caco-2 cell monolayer; [8]): 5.5 ± 0.2 ^c mg/L
Basolateral Side 0 min (Caco-2 cell monolayer; [9]): 6.1 ± 0.4 ^a mg/L
Basolateral Side 75 min (Caco-2 cell monolayer; [9]): 5.7 ± 0.4 ^b mg/L
Basolateral Side 90 min (Caco-2 cell monolayer; [9]): 5.4 ± 0.4 ^c mg/L
Basolateral Side 115 min (Caco-2 cell monolayer; [9]): 5.0 ± 0.4 ^d mg/L
Basolateral Side 180 min (Caco-2 cell monolayer; [9]): 4.7 ± 0.3 ^d mg/L
detection at the acceptor side (Caco-2 cell monolayer; BA experiments, apical side): detected
